pIC50: −log10 of the molar value.
Experiments:
[1] = target: CK2 (Homo sapiens, UniProt P68400); assay: CK2 inhibition, biochemical chemiluminescence holoenzyme assay (Kinase Glo, IC50 determination); settings: Table 1 activity class; symbol given only if active; read-out: CK2 IC50 (Activity C)
Description: Characterization of CK2 Inhibition in a Biochemical Chemiluminesence Assay (IC50 Determination):
The IC50 evaluation of compounds against CK2 was performed in a Chemiluminesence Holoenzyme assay utilizing a Greiner 384-well white medium binding white plate format. […] The assay procedure involves the compound dilution scheme followed by addition of 10 μL of the substrate twice, followed by 10 μL twice of the respective enzyme or buffer to the designated well plates and subsequent pre-incubation of the compounds. Following an incubation period of 150 minutes at ambient temperature (24-27° C.), 10 μL of Kinase Glo (Promega) was added. The luminescence was measured following a Luminescence Protocol on a Victor plate reader.

[2] = target: PIM (PIM-1, PIM-2, and/or PIM-3); assay: PIM-1, PIM-2 and PIM-3 inhibition, biochemical chemiluminescence assays (Kinase Glo, IC50 determination); settings: Table 1 activity class; PIM refers to PIM-1, PIM-2, and/or PIM-3; read-out: PIM IC50 (Activity B)
Description: (§1) The IC50 evaluation of compounds against the PIM-1 oncogene was performed in a Chemiluminesence assay utilizing a Greiner 384-well white medium binding white plate format. […] Following an incubation period of 120 minutes at ambient temperature (24-27° C.), 10 μL of Kinase Glo (Promega) was added. The luminescence was measured following a Luminescence Protocol on a Victor plate reader.
The IC50 evaluation of compounds against the PIM-2 oncogene was performed in a Chemiluminesence assay utilizing a Greiner 384-well white medium binding white plate format. […] The assay procedure involves compound dilution followed by addition of 3 nM PIM-2 to the designated well plates and subsequent pre-incubation of the compounds with the enzyme for 30 minutes at ambient temperature (24-27° C.). […] Following an incubation period of 120 minutes at ambient temperature (24-27° C.), 10 μL of Kinase Glo (Promega) was added. The luminescence was measured following a Luminescence Protocol on a Victor plate reader.
as §1, with “PIM-3 Oncogene” for “PIM-1 oncogene”

Sequence of CK2 (P68400 whole entry): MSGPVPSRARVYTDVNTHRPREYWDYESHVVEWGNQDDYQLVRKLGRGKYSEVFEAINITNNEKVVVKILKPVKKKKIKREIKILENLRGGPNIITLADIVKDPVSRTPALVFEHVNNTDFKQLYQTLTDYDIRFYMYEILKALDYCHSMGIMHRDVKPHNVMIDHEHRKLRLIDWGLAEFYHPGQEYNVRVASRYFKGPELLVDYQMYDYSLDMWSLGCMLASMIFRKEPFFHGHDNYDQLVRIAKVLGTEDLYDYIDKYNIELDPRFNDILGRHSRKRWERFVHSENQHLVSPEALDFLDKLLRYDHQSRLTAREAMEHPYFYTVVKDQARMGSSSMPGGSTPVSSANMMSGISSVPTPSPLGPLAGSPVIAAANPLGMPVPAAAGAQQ
Sequence of CK2 (P67870 whole entry partner): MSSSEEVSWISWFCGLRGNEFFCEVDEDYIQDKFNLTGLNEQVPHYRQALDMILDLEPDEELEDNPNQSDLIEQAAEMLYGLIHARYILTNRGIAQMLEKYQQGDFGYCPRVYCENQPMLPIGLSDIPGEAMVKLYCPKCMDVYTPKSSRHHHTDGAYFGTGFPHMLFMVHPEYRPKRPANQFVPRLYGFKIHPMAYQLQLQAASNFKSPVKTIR

| SMILES | pIC50 [1] | pIC50 [2] |
| --- | --- | --- |
| COc1cc(Br)c(-c2nc3c(oc4ccc(Br)cc43)c(=O)[nH]2)cc1OC [Compound 66, 8-bromo-2-[2-bromo-4,5-bis(methyloxy)phenyl][1]benzofuro[3,2-d]pyrimidin-4(3H)-one] | > 5.00 | > 5.00 |
| O=c1[nH]c(CNCc2cccc(Cl)c2)nc2c1oc1ccc(Br)cc12 [Compound 256, 8-bromo-2-({[(3-chlorophenyl)methyl]amino}methyl)[1]benzofuro[3,2-d]pyrimidin-4(3H)-one] | > 5.00 | > 5.00 |
| O=c1[nH]c(-c2c(F)cccc2F)nc2c1oc1ccc(Br)cc12 [Compound 70, 8-bromo-2-(2,6-difluorophenyl)[1]benzofuro[3,2-d]pyrimidin-4(3H)-one] | > 5.00 | > 5.00 |
| O=C(Nc1ccc(Cl)c(-c2nc3c(oc4ccc(Br)cc43)c(=O)[nH]2)c1)c1ccc(Cl)cn1 [Compound 340, N-[3-(8-bromo-4-oxo-3,4-dihydro[1]benzofuro[3,2-d]pyrimidin-2-yl)-4-chlorophenyl]-5-chloropyridine-2-carboxamide] | > 5.00 | > 5.00 |
| O=c1[nH]c(CN2CC[C@H](O)C2)nc2c1oc1ccc(NCc3ccccc3F)cc12 [Compound 462] | > 5.00 | > 5.00 |
| O=c1[nH]c(CNc2ccccc2F)nc2c1oc1ccc(Br)cc12 [Compound 19, 8-bromo-2-{[(2-fluorophenyl)amino]methyl}[1]benzofuro[3,2-d]pyrimidin-4(3H)-one] | > 5.00 | > 5.00 |
| O=c1[nH]c(-c2cc(OC3CCNCC3)no2)nc2c1oc1ccc(Br)cc12 [Compound 299, 8-Bromo-2-[3-(piperidin-4-yloxy)isoxazol-5-yl][1]benzofuro[3,2-d]pyrimidin-4(3H)-one] | > 5.00 | > 5.00 |
| O=c1[nH]c(CNc2ccccc2Cl)nc2c1oc1ccc(Br)cc12 [Compound 11, 8-bromo-2-{[(2-chlorophenyl)amino]methyl}[1]benzofuro[3,2-d]pyrimidin-4(3H)-one] | > 5.00 | > 5.00 |
| COc1ccc2oc3c(=O)[nH]c(-c4ccncc4Cl)nc3c2c1 [Compound 152, 2-(3-chloropyridin-4-yl)-8-(methyloxy)[1]benzofuro[3,2-d]pyrimidin-4(3H)-one] | > 5.00 | > 5.00 |
| O=c1[nH]c(-c2ncc[nH]2)nc2c1oc1ccc(Br)cc12 [Compound 85, 8-bromo-2-(1H-imidazol-2-yl)[1]benzofuro[3,2-d]pyrimidin-4(3H)-one] | > 5.00 | > 5.00 |
| CN(C)c1ccc(CNCc2nc3c(oc4ccc(Br)cc43)c(=O)[nH]2)cc1 [Compound 104, 8-bromo-2-[({[4-(dimethylamino)phenyl]methyl}amino)methyl][1]benzofuro[3,2-d]pyrimidin-4(3H)-one] | > 5.00 | > 5.00 |
| O=c1[nH]c(Cn2ccnc2-c2ccccc2)nc2c1oc1ccc(Br)cc12 [Compound 176, 8-bromo-2-[(2-phenyl-1H-imidazol-1-yl)methyl][1]benzofuro[3,2-d]pyrimidin-4(3H)-one] | > 5.00 | > 5.00 |
| CN1CCC(CNc2ccc(-c3nc4c(oc5ccc(Br)cc54)c(=O)[nH]3)c(Cl)c2)CC1 [Compound 163, 8-bromo-2-(2-chloro-4-{[(1-methylpiperidin-4-yl)methyl]amino}phenyl)[1]benzofuro[3,2-d]pyrimidin-4(3H)-one] | > 5.00 | > 5.00 |
| O=C(Nc1ccc(-c2nc3c(oc4ccc(Br)cc43)c(=O)[nH]2)c(Cl)c1)C1CCCCC1 [Compound 250, N-[4-(8-bromo-4-oxo-3,4-dihydro[1]benzofuro[3,2-d]pyrimidin-2-yl)-3-chlorophenyl]cyclohexanecarboxamide] | > 5.00 | > 5.00 |
| O=c1[nH]c(CN2CC[C@H](O)C2)nc2c1oc1ccc(NCc3ccccn3)cc12 [Compound 463, 2-{[(3S)-3-hydroxypyrrolidin-1-yl]methyl}-8-[(pyridin-2-ylmethyl)amino][1]benzofuro[3,2-d]pyrimidin-4(3H)-one] | > 5.00 | > 5.00 |
| Cc1ccc(N2C[C@@H]3C[C@H]2CN3Cc2nc3c(oc4ccc(Br)cc43)c(=O)[nH]2)cc1 [Compound 192, 8-bromo-2-{[(1S,4S)-5-(4-methylphenyl)-2,5-diazabicyclo[2.2.1]hept-2-yl]methyl}[1]benzofuro[3,2-d]pyrimidin-4(3H)-one] | > 5.00 | > 5.00 |

| SMILES | pIC50 [1] | pIC50 [2] |
| --- | --- | --- |
| CN1CCN(c2ccc(CNCc3nc4c(oc5ccc(Br)cc54)c(=O)[nH]3)cc2)CC1 [Compound 4, 8-bromo-2-[({[4-(4-methylpiperazin-1-yl)phenyl]methyl}amino)methyl][1]benzofuro[3,2-d]pyrimidin-4(3H)-one] | > 5.00 | > 5.00 |
| COc1ccc2oc3c(=O)[nH]c(-c4ccc(NCC5CCN(C(=O)OC(C)(C)C)CC5)cc4Cl)nc3c2c1 [Cpd 137, 1,1-dimethylethyl 4-[({3-chloro-4-[8-(methyloxy)-4-oxo-3,4-dihydro[1]benzofuro[3,2-d]pyrimidin-2-yl]phenyl}amino)methyl]piperidine-1-carboxylate] | > 5.00 | – |
| O=c1[nH]c(CNc2cccc(F)c2)nc2c1oc1ccc(Br)cc12 [Compound 12, 8-bromo-2-{[(3-fluorophenyl)amino]methyl}[1]benzofuro[3,2-d]pyrimidin-4(3H)-one] | > 5.00 | – |
| CN1CCN(Cc2nc3c(nc4ccc(Br)cn43)c(=O)[nH]2)CC1 [Compound 417, 8-bromo-2-[(4-methylpiperazin-1-yl)methyl]pyrido[1,2-e]purin-4(3H)-one] | – | > 5.00 |
| O=c1[nH]c(CN2CC[C@H](O)C2)nc2c1nc1ccc(Br)cn12 [Compound 418, 8-bromo-2-{[(3S)-3-hydroxypyrrolidin-1-yl]methyl}pyrido[1,2-e]purin-4(3H)-one] | – | > 5.00 |
| COc1ccc2oc3c(=O)[nH]c(-c4ccc(N)cc4Cl)nc3c2c1 [Cpd 129, 2-(4-amino-2-chlorophenyl)-8-(methyloxy)[1]benzofuro[3,2-d]pyrimidin-4(3H)-one] | > 5.00 | – |
| CN1CCN(Cc2nc3c(oc4ccc(C#CCO)cc43)c(=O)[nH]2)CC1 [Compound 450, 8-(3-hydroxyprop-1-yn-1-yl)-2-[(4-methylpiperazin-1-yl)methyl][1]benzofuro[3,2-d]pyrimidin-4(3H)-one] | – | > 5.00 |
| CN1CCN(c2ccccc2CNCc2nc3c(oc4ccc(Br)cc43)c(=O)[nH]2)CC1 [Compound 74, 8-bromo-2-[({[2-(4-methylpiperazin-1-yl)phenyl]methyl}amino)methyl][1]benzofuro[3,2-d]pyrimidin-4(3H)-one] | – | > 5.00 |
| O=c1[nH]c(-c2ccc(Br)cc2)nc2c1oc1ccc(Br)cc12 [Compound 95, 8-Bromo-2-(4-bromophenyl)[1]benzofuro[3,2-d]pyrimidin-4(3H)-one] | – | > 5.00 |
| COc1ccc(C(=O)Nc2ccc(Cl)c(-c3nc4c(oc5ccc(Br)cc54)c(=O)[nH]3)c2)cn1 [Compound 357, N-[3-(8-bromo-4-oxo-3,4-dihydro[1]benzofuro[3,2-d]pyrimidin-2-yl)-4-chlorophenyl]-6-(methyloxy)pyridine-3-carboxamide] | – | > 5.00 |
| CN1CCN(Cc2nc3c(oc4ccc(F)cc43)c(=O)[nH]2)CC1 [Compound 367, 8-Fluoro-2-[(4-methylpiperazin-1-yl)methyl][1]benzofuro[3,2-d]pyrimidin-4(3H)-one] | – | > 5.00 |
| CN1CCN(c2ccc(CNc3nc4c(oc5ccc(Br)cc54)c(=O)[nH]3)cc2)CC1 [Compound 225, 8-bromo-2-({[4-(4-methylpiperazin-1-yl)phenyl]methyl}amino)[1]benzofuro[3,2-d]pyrimidin-4(3H)-one] | – | > 5.00 |
| Cc1cc(NCC2CCOC2)ccc1-c1nc2c(oc3ccc(Br)cc32)c(=O)[nH]1 (stereo not shown) [Compound 61, 8-bromo-2-{2-methyl-4-[(tetrahydrofuran-3-ylmethyl)amino]phenyl}[1]benzofuro[3,2-d]pyrimidin-4(3H)-one] | – | > 5.00 |
| O=c1[nH]c(CN2CCN(CCN3CCOCC3)CC2)nc2c1oc1ccc(Br)cc12 [Compound 82, 8-bromo-2-{[4-(2-morpholin-4-ylethyl)piperazin-1-yl]methyl}[1]benzofuro[3,2-d]pyrimidin-4(3H)-one] | – | > 5.00 |
| CN1CCN(C(c2nc3c(oc4ccc(Br)cc43)c(=O)[nH]2)c2ccccc2Cl)CC1 (stereo not shown) [Compound 156, 8-Bromo-2-[(2-chlorophenyl)(4-methylpiperazin-1-yl)methyl][1]benzofuro[3,2-d]pyrimidin-4(3H)-one] | – | > 5.00 |
| O=c1[nH]c(CNC2CCNCC2)nc2c1oc1ccc(Br)cc12 [Compound 8, 8-bromo-2-[(piperidin-4-ylamino)methyl][1]benzofuro[3,2-d]pyrimidin-4(3H)-one] | – | > 5.00 |
